Measurements taken from ChEMBL document CHEMBL1126547, “Cardioselective anti-ischemic ATP-sensitive potassium channel openers” (J Med Chem, 1993).
The source made the active and inactive calls. The calls are words filed in the database; no cut-off is given here.

Experiments:
Rattus norvegicus [1] = species: Rattus norvegicus; experiment: Anti-ischemic potency determined as concentration required for increase in time to contracture in globally ischemic rat hearts; assay type: functional
Rattus norvegicus [2] = species: Rattus norvegicus; experiment: Vasorelaxant potency determined by inhibition of methoxamine-contracted rat aorta; assay type: functional
[3] = Ratio between EC25 and IC50 values was determined
Rattus norvegicus [4] = species: Rattus norvegicus; experiment: Anti-ischemic potency determined as concentration required for increase in time to contracture in globally ischemic rat hearts 10 uM; No significant activity; assay type: functional
[5] = Oral bioavailability in rat; assay type: ADME, organism-based; details: in vivo
[6] = Plasma half-life was determined in rats; assay type: ADME, organism-based; details: rat, read-out: Elimination half-life (converted)

| Compound | EC25 (Rattus norvegicus [1]) [µM] | IC50 (Rattus norvegicus [2]; Rattus norvegicus, Aorta) [µM] | Ratio [3] | also measured |
| --- | --- | --- | --- | --- |
| CC1(C)Oc2ccc(C#N)cc2C(N2CCCC2=O)C1O (stereo unspecified) [CROMAKALIM] | 8.9 | 0.032 | 278 |  |
| CC1(C)Oc2ccc(C#N)cc2[C@@H](/N=C(\S)Nc2ccccc2)[C@@H]1O | 7.7 | 1.7 | 4.5 |  |
| C#Cc1ccc2c(c1)[C@@H](/N=C(\NC#N)Nc1ccccc1)[C@H](O)C(C)(C)O2 | >30 | 5.4 |  |  |
| CC1(C)Oc2ccc(C#N)cc2[C@@H](/N=C(\NC#N)Nc2ccc(C(F)(F)F)cc2)[C@@H]1O | 13.4 | 8.1 | 1.7 |  |
| CC1(C)Oc2ccc(C#N)cc2[C@@H](/N=C(\NC#N)Nc2ccc(Cl)cc2)[C@@H]1O | 2.5 | 1.8 | 1.4 |  |
| CC1(C)Oc2ccc(C#N)cc2[C@@H](NC(=O)Nc2ccccc2)[C@@H]1O | 5.1 |  |  |  |
| CC1(C)Oc2ccccc2[C@@H](/N=C(\NC#N)Nc2ccccc2)[C@@H]1O |  | 72.7 |  | EC25 (Rattus norvegicus [4]): inactive |
| CC1(C)Oc2ccc([N+](=O)[O-])cc2[C@@H](/N=C(\NC#N)Nc2ccccc2)[C@@H]1O | 7.2 | 2 | 3.6 |  |
| CC1(C)Oc2ccc(C#N)cc2[C@@H](/N=C(\NC#N)Nc2ccccc2)[C@@H]1O (stereo in doubt; 12) [listing 1 of 2 here] |  |  | 4.7 |  |
| CC1(C)Oc2ccc(C#N)cc2[C@@H](/N=C(\NC#N)Nc2ccccc2)[C@@H]1O (stereo in doubt; 5) [listing 1 of 2 here] |  |  | 7.9 |  |
| CC1(C)Oc2ccc(C#N)cc2[C@@H](/N=C(\NC#N)Nc2ccccc2)[C@@H]1O (stereo in doubt; 12) [listing 2 of 2 here] | 6.1 |  |  | bioavailability [5]: 70%; half-life [6]: 1.8 h; IC50 (Rattus norvegicus [2]): 1.3 µM |
| CC1(C)Oc2ccc(C#N)cc2[C@@H](NC(=NC#N)Nc2ccc(Cl)cc2)[C@@H]1O |  |  |  | bioavailability [5]: 61%; half-life [6]: 7 h |
| CC1(C)Oc2ccc(C#N)cc2[C@@H](/N=C(\NC#N)Nc2ccc(O)cc2)[C@@H]1O | 33.4 | 2.2 | 15.2 |  |
| CC1(C)Oc2ccc(C#N)cc2[C@@H](/N=C(\NC#N)Nc2ccc(F)cc2)[C@@H]1O | 3.5 | 1.4 | 2.5 | bioavailability [5]: 64%; half-life [6]: 1.7 h |
| CC1(C)Oc2ccc(C#N)cc2[C@@H](/N=C(\NC#N)Nc2ccccc2)[C@@H]1O (stereo in doubt; 5) [listing 2 of 2 here] | 11 |  |  |  |
| CC1(C)Oc2ccc(C#N)cc2[C@@H](/N=C(\NC#N)Nc2ccccc2)[C@@H]1O (stereo in doubt; 13) | >30 |  |  | IC50 (Rattus norvegicus [2]): 4.2 µM |
| CCC(C)(C)/N=C(\NC#N)N[C@@H]1c2cc(C#N)ccc2OC(C)(C)[C@H]1O | 20.1 |  | 0.7 |  |
